Assay [1] addresses IadK2 mutants (Variovorax paradoxus, UniProt T1X8R6, W172A). Put plainly: ITC, IAA binding to IadK2 mutants. Details: species or system Variovorax paradoxus CL14. The settings on record: IadK2 mutant W172A, replicates. The procedure:
(§1) ITC experiments were performed using a MicroCal PEAQ-ITC system (Malvern). All the experiments were performed at […] in a buffer containing 25 mM Tris-HCl (pH 7.5) and 150 mM NaCl (unless otherwise stated). […] Data was analyzed using the MicroCal PEAQ-ITC analysis software. All the measurements were repeated at least 2 times.
Background: ITC needs no label: the signal is the heat of the interaction.

The test system of assay [2] is IadK2. Put plainly: Thermal shift assay (TSA), IadK2 with IAA and analogs. Type of assay: binding, Variovorax paradoxus CL14. The procedure:
(§2) Ligands concentrations were tested at 2- to […] excess (10 to 1,000 μM) relative to the proteins (5 μM). The fluorescence dye SYPRO Orange at a final of 200-fold dilution was used to monitor the unfolding of proteins. The protein and ligand were incubated for 10 min at room temperature before the addition of SYPRO Orange dye. The QuantStudio 1 Plus real-time PCR system (Thermo Fisher) was used to control the temperature increasing from […] to […] with an increment of […] and to monitor the fluorescence (excitation: 520 ± 10 nm and emission: 558 ± 10 nm). Each tested group was run in triplicate and repeated. Data was imported to the Protein Thermal Shift software for analysis and plotting.

In assay [3] the target is T1, IadC (Variovorax paradoxus, UniProt C5CSP5).
T1 sequence (C5CSP5 1-330): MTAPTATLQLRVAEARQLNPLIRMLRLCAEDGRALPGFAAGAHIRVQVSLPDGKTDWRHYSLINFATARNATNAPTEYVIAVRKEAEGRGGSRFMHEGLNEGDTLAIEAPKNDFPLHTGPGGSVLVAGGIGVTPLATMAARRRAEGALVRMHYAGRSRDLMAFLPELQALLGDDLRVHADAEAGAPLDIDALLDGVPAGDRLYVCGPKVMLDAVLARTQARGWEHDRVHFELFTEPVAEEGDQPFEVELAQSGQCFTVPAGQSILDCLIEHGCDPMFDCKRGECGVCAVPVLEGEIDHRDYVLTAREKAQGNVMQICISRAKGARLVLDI
Put plainly: ITC, IAA binding to IadC. Further details: species or system Variovorax paradoxus CL14. The procedure: as §1

For assay [4], the target named is MarR. Details: method as in Conway et al. 2022. As to conditions: MarR domains, high affinity IAA binding; ref Conway et al. 2022; cited from earlier work.
In assay [5] the test system is IadG. Kind of assay: ITC, IAA binding to IadG. Details: species or system Variovorax paradoxus CL14. The procedure:
as §1

For assay [6], the system named is Iad proteins. Kind of assay: Thermal shift assay (TSA), other Iad proteins with IAA. Type of assay: binding, Variovorax paradoxus CL14. As to conditions: for ΔTm: replicates. The procedure: as §2

Molecules are shown by their SMILES. pKd: −log10 of the molar value. “And” between values parts separate entries of the source, which are not always exact repeats. Equal entries are not always repeated. “Also recorded” adds a separate entry of the source.

The values that follow come from paper PMC10374108, “Structural and biochemical characterization of the key components of an auxin degradation operon from the rhizosphere bacterium Variovorax” (PLOS Biology, 2023).

IadK2 mutants, sequence (T1X8R6 entry or part of it W172A): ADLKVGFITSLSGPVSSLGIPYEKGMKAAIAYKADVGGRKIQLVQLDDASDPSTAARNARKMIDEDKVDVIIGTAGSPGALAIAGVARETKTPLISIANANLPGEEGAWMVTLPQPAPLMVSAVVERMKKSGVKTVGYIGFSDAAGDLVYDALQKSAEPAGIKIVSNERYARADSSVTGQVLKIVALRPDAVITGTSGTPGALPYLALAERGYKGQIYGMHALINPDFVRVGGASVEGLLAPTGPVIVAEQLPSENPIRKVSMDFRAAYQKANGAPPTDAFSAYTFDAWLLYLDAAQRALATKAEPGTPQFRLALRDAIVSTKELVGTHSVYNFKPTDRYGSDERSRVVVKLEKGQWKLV

For orientation: pKd means the Kd on a negative log10 scale, so that one unit is a factor of ten. Broadly, the ΔTm is the change in melting temperature against a reference sample. In the case of `O=C(O)Cc1c[nH]c2ccccc12` [IAA, indole-3-acetic acid], the pKd in assay [1] is less than 4.00; in assay [1] (Kd), less than 4.00; in assay [3] (ITC, replicates), less than 4.00; in assay [4], roughly 6.52; in assay [5] (ITC, replicates), less than 4.00. Moreover, the “Tm change with IAA (TSA)” value in assay [2] (IadK2 WT, replicates, Fig 2E) turned out to be 5.98. The ΔTm in assay [2] (IadK2 with IAA, replicates) was 5.98 °C; in assay [6] (IadC with IAA), -0.4983 °C and 0.9966 °C and 0 °C; in assay [6] (IadF with IAA) it was 0.4983 °C and -0.9966 °C and 0 °C; in assay [6] (IadG with IAA), 1.495 °C (2×) and 1.993 °C; in assay [6] (IadH with IAA), 0.9966 °C and 0 °C and -0.4983 °C; in assay [6] (IadI with IAA), 0.4983 °C and -0.4983 °C and -1.993 °C. Further, the ΔTm in assay [6] (IadJ with IAA) is 0 °C and 0.4983 °C and 1.495 °C. The “stabilization of IadK2 (melting temperature, TSA)” value in assay [2] (result in words) is reported as “substantially increased the melting temperature; also recorded: most significant stabilization effect”. The “IAA binding (ITC)” value in assay [3] and in assay [5] was “no binding detected” each time. In assay [6] (Iad proteins other than IadK2, result in words), the “effect on melting temperature (TSA)” value was “no profound effects”.
